The source of these data is patent publication US7662853B2, “Monoacetyldiacylglycerol derivative for the treatment of sepsis” (priority 2004, dated 2010).

One test deals with Monocytes. Put plainly: Monocytes proliferation (3H-thymidine incorporation, SI). The class given is cell-based. The following applies: human monocytes, 1 μg/ml, 7th day. As to the method: Monocytes were isolated from human whole blood using Histopaque 1077. And then, monocytes (5×10^6 cells/ml) were allowed to adhere to tissue culture flask for 3 hours in a 5% CO2 incubator. After 3 hours, non-adherent cells were removed and adherent cells were placed in 96-well plates in RPMI 1640 medium (GIBCO, Grand Island, N.Y.) supplemented with 10% FBS. 5×10^4 viable cells per well were cultured in 96-well plates, with 1 μg/ml of Compound 1˜5. On the 6th day, cells were incubated with 1 μCi ^3H-thymidine/well for 24 hours. On the 7th day, the cells were harvested and the incorporation of ^3H-thymidine was measured. Si was calculated by the above mentioned formula 1.
Background: Dividing cells build labelled thymidine or BrdU into new DNA.

The test system of another test is T-cells. Nature of the test: T-cell proliferation (3H-thymidine incorporation, SI). The test is classed as cell-based, C57BL/6 mice. The settings on record: 1 μg/ml, 7th day, CPM in sample/CPM in control. The source says:
Splenocytes were collected from C57BL/6 mice (provided from Asan Institute for Life Sciences Animal Lab., Seoul, Korea) spleens. Then, single cell suspensions were obtained by repeated aspiration and flushing. Red blood cells were removed using ammonium chloride and then passed through nylon wool to remove debris and clumps. T-cells were purified using magnetic bead (MACS bead, Miltenyi Biotec, bergich gladbach, Germany) containing anti-goat IgG MACS bead, Miltenyi Biotec, bergich gladbach, Germany) or anti-mouse CD4 (MACS bead, Miltenyi Biotec, bergich gladbach, Germany) or anti-mouse CD8 antibody (MACS bead, Miltenyi Biotec, bergich gladbach, Germany) (Turner and Dockrell (1996) Immunology, 87: 339-342).
T cell suspensions were suspended in Isocove's modified Dulbecco's medium (IMDM, Gibco, Grand Island, N.Y.) supplemented with 10% fetal bovine serum (referred as ‘FBS’ hereinafter) (Gibco, Grand Island, N.Y.). […] On the 6th day, cells were incubated with 1 μCi ^3H-thymidine/well for 24 hours. On the 7th day, the cells were harvested and the […] (referred as ‘SI’ hereinafter) was calculated by the following Mathematical Formula 1. SI=^3H-thymidine absorbed by wells of experimental group (CPM in sample)/^3H-thymidine absorbed by wells of control group (CPM in control) [Mathematical Formula 1]

For `CCCCCCCC/C=C\CCCCCCCC(=O)OCC(COC(C)=O)OC(=O)CCCCCCCCCCCCCCC` (centres unmarked) [Compound 1, 1-oleoyl-2-2palmitoyl-3-acetylglycerol], the “SI (±S.E)” value with Monocytes turned out to be 9.97 ± 0.10. The compound also gave an SI in the test with T-cells of 2.01 ± 0.43.

In the case of `CCCCCCCC/C=C\CCCCCCCC(=O)OC(COC(C)=O)COC(=O)CCCCCCCCCCCCCCC` (centres unmarked) [Compound 2, 1-palmitoyl-2-oleoyl-3-acetylglycerol], in the test with Monocytes, the “SI (±S.E)” value was 10.42 ± 0.15. In the test with T-cells, this compound showed an SI of 2.03 ± 0.54.

As for `CC/C=C\C/C=C\C/C=C\CCCCCCCC(=O)OC(COC(C)=O)COC(=O)CCCCCCCCCCCCCCC` (centres unmarked) [Compound 4, 1-palmitoyl-2-linolenoyl-3-acetylglycerol], in the test on Monocytes, the “SI (±S.E)” value was 10.21 ± 0.18. The SI with T-cells is on record as 1.98 ± 0.26.

Turning to `CCCCC/C=C\C/C=C\C/C=C\C/C=C\CCCC(=O)OC(COC(C)=O)COC(=O)CCCCCCCCCCCCCCC` (centres unmarked) [Compound 5, 1-palmitoyl-2-arachidonoyl-3-acetylglycerol], in the test on Monocytes, the “SI (±S.E)” value stood at 9.75 ± 0.09. The SI in the test with T-cells is on record as 2.02 ± 0.38.
